From patent US7034041B2 (priority 2000, dated 2006)
Where a name gives a salt, the structure may show the parent alone.

Molecular target: (+)-MK801 binding site of the ionotropic NMDA receptor
Set-up: species or system rat

Structure (SMILES) | Ki
Cc1ccccc1C1=CCN(C2(c3ccccc3)CCCCC2)CC1 [Example 7, 4-(2-methylphenyl)-1-(1-phenylcyclohexyl)-1,2,3,6-tetrahydropyridine hydrochloride] | 5.3 µM
Clc1ccccc1C1=CCN(C2(c3ccccc3)CCCCC2)CC1 [Example 11, 4-(2-chlorophenyl)-1-(1-phenylcyclohexyl)-1,2,3,6-tetrahydropyridine hydrochloride] | 2.8 µM
